Measured values published in patent publication US10202412B2, “β-D-2′-deoxy-2′-substituted-4′-substituted-2-substituted-N6-substituted-6-aminopurinenucleotides for the treatment of paramyxovirus and orthomyxovirus infections” (Atea Pharmaceuticals, Inc., priority 2016, dated 2019).
pEC50, pIC50: −log10 of the molar value.

How the values were obtained:
[1] = test system: respiratory syncytial virus A2 (ATCC VR-1540); assay: Cytopathic effect assay with RSV A2 in MA-104 cells; format: cell-based; conditions: human respiratory syncytial virus, MA104, CPE inhibition, neutral red
Description: (§1) Test compounds were dissolved in DMSO and then prepared in eight half-log dilutions in MEM medium with 50 μg/mL gentamicin and 2% FBS (MA-104 cells only). Each dilution was added to 5 wells of a 96-well plate with 80-100% confluent cells (either MA-104 cells or HEp-2 cells). Three wells of each dilution were infected with respiratory syncytial virus A2 (ATCC VR-1540) and two wells remained uninfected as toxicity controls. After maximum cytopathic effect (CPE) was observed microscopically in untreated virus control wells, plates were stained with neutral red dye for approximately 2 hours, then supernatant dye was removed and the incorporated dye was extracted in 50:50 Sorensen citrate buffer/ethanol and read on a spectrophotometer. Optical density values were normalized based on cell and virus controls, then the concentration of test compound required to inhibit CPE by 50% (EC50) was calculated by regression analysis. The reported EC50 value is the mean of at least two experiments. The concentration of compound that caused 50% CPE in the absence of virus was similarly calculated to determine cytotoxicity (CC50).

[2] = test system: Differentiated normal human bronchial epithelial (dNHBE) cells; assay: dNHBE assay: toxicity evaluated microscopically; format: cell-based; parameters: unit not given here
Description: (§2) Differentiated normal human bronchial epithelial (dNHBE) cells were grown on 6 mm mesh disks in transwell inserts to approximately 1.2×10^6 cells/disk and disks were transferred to individual wells of a 6-well plate. 1 mL of proprietary culture medium was added to the basolateral side of the cells and the apical side was exposed to a humidified 95% air/5% CO2 environment. Cells were cultured at 37° C. for one day and then the mucin layer was removed from the apical side of the cells by repeated (3×) washing with 500 μL 30 mM HEPES buffered saline solution and culture medium on the basal side was replenished.
(§3) Various concentrations of test compounds in medium were applied in duplicate to the apical (140 μL) and basal sides (1 mL) for a 1 hour pre-treatment, followed by addition of 140 μL of virus inoculum to each cell insert on the apical side. The viral inoculum and treatments were removed after 2 hours. Control cells were treated with placebo (culture medium only). Following infection, the apical medium was removed and the basal side was replaced with fresh compound in medium. The cells were maintained at the air-liquid interface, and cell culture medium on the basal side was replaced daily with fresh medium containing test compound. After 4 days, the liquid was removed from the basal side and discarded and virus released into the apical compartment was harvested by the addition of 500 μL of culture medium. The medium was thoroughly mixed, then removed, diluted 1:1 with 40% sucrose and stored at ≤−80° C.
(§4) Concentrations of test compounds that reduced virus yield by 1 log10 (90% effective concentration; EC90) were calculated by regression analysis. The reported EC90 value is the mean of at least two experiments. Potential toxicity of the test compounds was evaluated microscopically.

[3] = test system: respiratory syncytial virus A2 (ATCC VR-1540); assay: Cytopathic effect assay with RSV A2 in HEp-2 cells; format: cell-based; conditions: human respiratory syncytial virus; RSV in HEp-2 cells, CPE inhibition, neutral red
Description: as §1

HEp-2 cells = assay: Cytotoxicity in uninfected HEp-2 cells, neutral red; format: cell-based; parameters: unit not given here; conditions: absence of virus
Description: as §1

[4] = test system: Respiratory syncytial virus (RSV) type A, strain A2 (ATCC VR-1540); assay: dNHBE assay: RSV virus yield reduction (EC90); format: cell-based; conditions: RSV (A2) in dNHBE cells, concentration reducing virus yield by 1 log10, mean of at least two experiments
Description: as §2
Respiratory syncytial virus (RSV) type A, strain A2 (ATCC VR-1540), previously passaged in MA-104 cells to make working stock cultures, was diluted 1/10 in medium before infection, using a multiplicity of infection (MOI) of ≤0.03 CCID50 per cell.
as §3
To determine the virus titer from each treated cell culture, MA-104 cells were seeded in 96-well plates and grown overnight (37° C.) to confluence. Samples containing virus were diluted in 10-fold increments in infection medium and 200 μL of each dilution transferred into respective wells of a 96-well microtiter plate. Four microwells were used for each dilution to determine 50% viral endpoints. After 7 days of incubation, each well was scored positive for virus if any cytopathic effect was observed as compared with the uninfected control. The virus dose that was able to infect 50% of the cell cultures (CCID50 per 0.1 mL) was calculated by the Reed-Muench method. This was repeated in duplicate for each test sample, so that values reported are an average of 2 independent CCID5o determinations. Untreated, uninfected cell controls were tested as negative controls. Statistical differences in the titers were evaluated with a one-way analysis of variance (ANOVA) followed by Dunnett's multiple comparisons test compared with the untreated virus controls.
as §4

[5] = test system: human bone marrow progenitor cells (BFU-E); assay: Human bone marrow progenitor cell assay, BFU-E; format: cell-based; conditions: Homo sapiens, 336 h; BFU-E-specific culture, 14-day incubation, colony counts; read-out: Bone Marrow Stem Cell IC50 BFU-E
Description: (§5) Select compounds were tested in an in vitro selectivity study with human bone marrow progenitor cells. Fresh human bone marrow progenitor cells (Invitrogen) suspended in either BFU-E or GM-CSF-specific culture medium were added, at 10^5 cells/well, to triplicate serial dilutions of TA in 6-well plates. After 14-day incubations, colony counts were used to determine […] values. BFU-E colonies were confirmed using the benzidene technique. No cytotoxicity was observed from any of the tested compounds.

iPS cardiomyocytes = assay: iPS cardiomyocyte assay (XTT viability); format: cell-based; conditions: 72 h, 3 days incubation, XTT staining
Description: Select compounds were tested in an in vitro selectivity study with iPS cardiomyocytes. iPS cardiomyocytes (Cellular Dynamics) were seeded in microliter plates at 1.5×10^4 cells per well. After 48-hr incubation, cells were washed and maintenance medium containing 30 serially diluted TA was added in triplicate. After incubating for an additional 3 days, cellviability was measured by staining with XTT and CC50 values were calculated. No cytotoxicity was observed from any of the tested compounds.

[6] = test system: human bone marrow progenitor cells (CFU-GM); assay: Human bone marrow progenitor cell assay, CFU-GM (GM-CSF-specific culture); format: cell-based; conditions: Homo sapiens, CFU-GM, 336 h, 14-day incubation, colony counts, read-out: Bone Marrow Stem Cell IC50 CFU-GM
Description: as §5

[7] = Hamster lung triphosphate assay; format: in vivo, Golden Syrian hamsters; conditions: analog triphosphate in hamster lung tissue 72 h after oral target dose of 50 mg/kg in PEG400
Description: Male Golden Syrian hamsters (n=3 per test compound) were fasted overnight and then administered test compounds in PEG400 at a target dose of 50 mg/kg by oral gavage. Food was returned 4 h after dosing. At 72 h post dose, animals were anesthetized and a sample of lung tissue was removed and flash-frozen in liquid nitrogen. Approximately 0.5 g of frozen tissue was homogenized using a Polytron homogenizer in 5 volumes homogenization solution (MeOH:50% aqueous KOH:268 mM EDTA, pH 8, 1750:5:750, v/v) in a dry ice/ethanol bath. Supernatants were prepared by centrifugation and analyzed by LC-MS/MS for concentrations of the corresponding analog triphosphates. See Table 7 below for the 72 hour lung triphosphate concentration. After 72 hours, the lung triphosphate concentration following administration of Compound AB and Compound AC was greater than 800 ng/g.

[8] = human respiratory syncytial virus

Structure (SMILES)	pEC50 [1]	Visual toxicity [2]	pEC50 [3]	TC50 (HEp-2 cells)	EC90 [4, 8]	pIC50 [5]	pIC50 (iPS cardiomyocytes)	pIC50 [6]	EC90 [4]	72 h Lung TP Concentration [7]
Nc1ccn([C@@H]2O[C@@](CO)(CCl)C(O)[C@H]2F)c(=O)n1 (stereo in doubt) [W]	5.02	>338	6.22	>100	0.58 µM	–	–	–	–	–
CNc1nc(N)nc2c1ncn2[C@@H]1O[C@](C)(CO)[C@@H](O)[C@H]1F [Compound C, (2R,3R,4R,5R)-5-(2-Amino-6-(methylamino)-9H-purin-9-yl)-4-fluoro-2-(hydroxymethyl)-2-methyltetrahydrofuran-3-ol]	–	>320	< 4.00	>100	3.2 µM	–	–	–	–	–
CC[C@]1(CO)O[C@@H](n2cnc3c(N(C)C)nc(N)nc32)[C@H](F)[C@@H]1O [Compound O, (2R,3R,4R,5R)-5-(2-Amino-6-(dimethylamino)-9H-purin-9-yl)-2-ethyl-4-fluoro-2-(hydroxymethyl)tetrahydrofuran-3-ol]	< 3.53	>293	< 4.00	>100	> 293 µM	–	–	–	–	–
CNc1nc(N)nc2c1ncn2[C@@H]1O[C@](C)(COP(=O)(N[C@@H](C)C(=O)OC(C)C)Oc2ccccc2)[C@@H](O)[C@H]1F (stereo partly drawn) [Compound D]	–	>172	< 4.00	>100	1.7 µM	–	–	–	–	–
CNc1nc(F)nc2c1ncn2[C@@H]1O[C@](CCl)(CO[P@@](=O)(N[C@@H](C)C(=O)OC(C)C)Oc2ccccc2)[C@@H](O)[C@@H]1F [AQ, (S)-Isopropyl 2-(((S)-(((2R,3R,4S,5R)-5-(6-(methylamino)-2-fluoro-9H-purin-9-yl)-2-(chloromethyl)-4-fluoro-3-hydroxytetrahydrofuran-2-yl)methoxy)(phenoxy)phosphoryl)amino) propanoate]	–	>1.6	–	–	0.18 µM	< 4.00	< 4.00	< 4.00	–	–
CC(C)OC(=O)[C@H](C)N[P@](=O)(OC[C@@]1(C)O[C@@H](n2cnc3c(N(C)C)nc(NC(=O)C(C)C)nc32)[C@H](F)[C@@H]1O)Oc1ccccc1 [AO, (S)-Isopropyl 2-(((S)-(((2R,3R,4R,5R)-5-(6-(dimethylamino)-2-isobutyramido-9H-purin-9-yl)-4-fluoro-3-hydroxy-2-methyltetrahydrofuran-2-yl)methoxy)(phenoxy)phosphoryl)amino) propanoate]	–	>1.5	–	–	–	–	–	–	0.096 µM	108 ng/g
CC[C@]1(COP(=O)(N[C@@H](C)C(=O)OC(C)C)Oc2ccccc2)O[C@@H](n2cnc3c(N(C)C)nc(N)nc32)[C@H](F)[C@@H]1O (stereo partly drawn) [Compound P, (2S)-Isopropyl 2-(((((2R,3R,4R,5R)-5-(2-amino-6-(dimethylamino)-9H-purin-9-yl)-2-ethyl-4-fluoro-3-hydroxytetrahydrofuran-2-yl)methoxy)(phenoxy)-phosphoryl)amino) propanoate]	< 3.79	>143	< 4.00	>100	88.6 µM	–	–	–	–	–
CNc1nc(N)nc2c1ncn2[C@@H]1O[C@](C)(CO[P@@](=O)(N[C@@H](C)C(=O)OC(C)C)Oc2ccccc2)[C@@H](O)[C@H]1F [Compound AB, (S)-Isopropyl 2-(((S)-(((2R,3R,4R,5R)-5-(2-amino-6-(methylamino)-9H-purin-9-yl)-4-fluoro-3-hydroxy-2-methyltetrahydrofuran-2-yl)methoxy)(phenoxy)phosphoryl)amino) propanoate]	–	>17	–	–	–	< 4.00	< 4.00	< 4.00	0.052 µM	–
